Here are results for 7 molecules from ChEMBL document CHEMBL3430912, “GSK Tres Cantos Anti-Kinetoplastid Screening (TCAKS) Data”.

The structures appear in SMILES notation. Some results are limits rather than exact numbers.

Data set [1] can be described thus: GSK_TCAKS: pIC50 HepG2 human cell line viability assay using luminiscence. […] Seeding density was checked to ensure that new mono-layers were not more than 50% confluent at the time of harvesting. Cell suspension was added to 500 mL of the same medium at a final density of 1.2 * 10^5 cells/mL. This cell suspension was dispensed (25 uL, 3000 cells per well) into 384-well clear-bottom plates using a Multidrop Combi dispenser. Prior to addition of the cell suspension, the screening compounds (250 nL) were pre-dispensed into the plates with an Echo liquid handler. Plates were incubated for 48 h at 37C, 5% CO2. After incubation, plates equilibrated at room temperature for 30 min before proceeding to develop the luminescent signal. The signal developer, CellTiter-Glo Reagent, was allowed to equilibrate at room temperature for 30 min and added to the plates (25uL per well) using a Multidrop Combi dispenser. Plates were left for 10 min at room temperature for stabilization and then read using a ViewLux. Format: toxicity, cell-based. (In general: Cellular ATP, detected with luciferase, serves as a proxy for viable cell number.)

Data set [2] concerns Trypanosoma cruzi. Kind of data set: GSK_TCAKS: pIC50 Trypanosoma cruzi Imaging: Amastigotes/Cell. […] Cells were then washed once with PBS before infection. T. cruzi trypomastigotes, collected at days 5 to 8 after infection from LLC-MK2 parasite infected cultures, were allowed to swim out for 4h at 37C from a centrifuged pellet (2,500 rpm/10 min/room temperature). Trypomastigotes were then collected and counted in a CASY Cell Counter. Trypomastigotes, in supplemented DMEM, were added to H9c2 cultures in a multiplicity of infection of 1 and incubated for 18 h. Cells were washed once with PBS before incubation of the infected H9c2 monolayer with trypsin (Life-Technologies) to detach cells from the flask. Cells were counted in a CASY Cell Counter using a 150 um capillary and their density set at 5 * 10^4 cells per mL in supplemented assay DMEM. Infected H9c2 were dispensed into 384-well poly-lysine coated assay plates at 50uL per well using a Multidrop Combi dispenser. After seeding them, the plates were incubated at 37C, 5% CO2 for 72h. Cultures were then fixed and stained by addition of 50 uL of a solution containing 8% formaldehyde and 4 uM DRAQ5 DNA dye (BioStatus, UK) per well. […] Five images were collected per well for reliable statistical analysis. Automated image analysis was performed with a script developed on Acapella High Content Imaging and Analysis Software (PerkinElmer). Output: number of amastigotes per cell as infection level measurement. Format: functional, organism-based, Rattus norvegicus. As to conditions: H9c2, 4 h.

For data set [3], the system named is Trypanosoma cruzi. Kind of data set: (§1) GSK_TCAKS: pIC50 Trypanosoma cruzi Imaging: Infected Cells. […] Cells were then washed once with PBS before infection. T. cruzi trypomastigotes, collected at days 5 to 8 after infection from LLC-MK2 parasite infected cultures, were allowed to swim out for 4h at 37C from a centrifuged pellet (2,500 rpm/10 min/room temperature). Trypomastigotes were then collected and counted in a CASY Cell Counter. Trypomastigotes, in supplemented DMEM, were added to H9c2 cultures in a multiplicity of infection of 1 and incubated for 18 h. Cells were washed once with PBS before incubation of the infected H9c2 monolayer with trypsin (Life-Technologies) to detach cells from the flask. Cells were counted in a CASY Cell Counter using a 150 um capillary and their density set at 5 * 10^4 cells per mL in supplemented assay DMEM. Infected H9c2 were dispensed into 384-well poly-lysine coated assay plates at 50uL per well using a Multidrop Combi dispenser. After seeding them, the plates were incubated at 37C, 5% CO2 for 72h. Cultures were then fixed and stained by addition of 50 uL of a solution containing 8% formaldehyde and 4 uM DRAQ5 DNA dye (BioStatus, UK) per well. […] Five images were collected per well for reliable statistical analysis. Automated image analysis was performed with a script developed on Acapella High Content Imaging and Analysis Software (PerkinElmer). Output: percentage of infected cells per well as a second infection marker. In kind it is functional, organism-based, Rattus norvegicus. The settings on record: H9c2, 4 h.

Data set [4] deals with Trypanosoma cruzi. The description is as §1, with “H2C9” for “Trypanosoma cruzi”, “H9c2 Host Cardiomyocytes.” for “Infected Cells.”, “Number” for “percentage”, “H9c2 Host Cardiomyocytes nuclei to determine drug-related cytotoxicity.” for “infected cells per well as a second infection marker.”. Format: functional, organism-based, Rattus norvegicus. As to conditions: H9c2, 4 h.

Data set [5] concerns Leishmania donovani. Kind of data set: GSK_TCAKS: pIC50 Leishmania donovani Imaging: Infected Macrophages. Assay plates (384-well) were prepared by adding 250nL of compound to each well. For single shot assay, the final compound concentration was 5 uM. […] Automated image analysis was performed with a script developed on Acapella High Content Imaging and Analysis Software (PerkinElmer). Output: Percent of infected macrophage cells were reported for each well. Format: functional, organism-based, Homo sapiens. As to conditions: THP-1.

Data set [6] concerns Trypanosoma brucei brucei. Kind of data set: GSK_TCAKS: pIC50 Trypanosoma brucei viability assay using luminiscence. Assay plates (1536-well) were prepared. T. brucei cultures were harvested and counted in a CASY cell counter. A parasite suspension was prepared at a final concentration of 5 * 10^4 cells/mL in complete HMI9 medium and 6uL was dispensed to all wells containing compounds using a Multidrop Combi dispenser. 6uL of HMI9 media with 0.4% DMSO were dispensed to control columns. Plates were incubated for 24 h at 37C, 5% CO2 then tempered for 10 min at room temperature. ATP content was quantified by adding 4 uL of CellTiter-Glo Reagent (Promega) according to the manufacturer's instructions. Luminescence was measured using a ViewLux. The settings on record: Lister 427, CASY. In kind it is functional, organism-based.

In data set [7] the test system is Trypanosoma cruzi. Kind of data set: GSK_TCAKS: pIC50 Trypanosoma cruzi viability assay using beta-GAL activity. This assay was run at single shot at 5uM compound concentration per well. The biological reagents consisted of NIH-3T3 host cells and trypomastigotes parasitic cells; both cell types were set to a 3.3 * 10^5 cells/mL dilution in assay DMEM by means of a CASY cell counter device using a 60um capillary. 6 uL of the mixture were dispensed per well (about 1 * 10^3 host-cells and 1 * 10^3 parasites) with a Multidrop Combi dispenser. […] In all wells, the percentage of DMSO never exceeded 0.5%. Plates incubated for four days at 37C, 5% CO2. The substrate used for the assay fluorescence intensity (FLINT) readout was resorufin-beta-D-galactopiranoside (Sigma-Aldrich) at 5uM per well. It was diluted in PBS supplemented with the soft detergent Igepal (Fluka). As to conditions: Tulahuen, NIH3T3. Format: functional, organism-based, Mus musculus.

Data set [8] deals with Leishmania donovani. As to the kind of experiment: GSK_TCAKS: pIC50 Leishmania donovani Imaging: THP-1 Host Macrophages. Assay plates (384-well) were prepared by adding 250nL of compound to each well. For single shot assay, the final compound concentration was 5 uM. […] Automated image analysis was performed with a script developed on Acapella High Content Imaging and Analysis Software (PerkinElmer). Output: THP-1 cell count were reported for each well. Format: functional, organism-based, Homo sapiens.

Data set [9] concerns Trypanosoma brucei brucei. Kind of data set: GSK_TCAKS: pIC50 Trypanosoma brucei viability assay using fluorescence intensity. Assay plates (1536-well) were prepared by dispensing 25nL of compound solution per well using an Echo acoustic dispenser (Labcyte). In kind it is functional, organism-based. As to conditions: Lister 427, 2 h.
For data set [10], the system named is Leishmania donovani. As to the kind of experiment: GSK_TCAKS: pIC50 Leishmania donovani Imaging: Amastigotes/Macrophages. Assay plates (384-well) were prepared by adding 250nL of compound to each well. For single shot assay, the final compound concentration was 5 uM. […] Automated image analysis was performed with a script developed on Acapella High Content Imaging and Analysis Software (PerkinElmer). Output: Average number of amastigotes per macrophage cell were reported for each well. In kind it is functional, organism-based, Homo sapiens. The settings on record: THP-1.

Data set [11] addresses Sterol 14-alpha demethylase (Trypanosoma cruzi (strain CL Brener), UniProt Q7Z1V1). As to the kind of experiment: GSK_TCAKS: pIC50 CYP51 from Trypanosoma cruzi. Format: functional.
For data set [12], the system named is NIH3T3. As to the kind of experiment: GSK_TCAKS: pIC50 NIH 3T3 cell line viability assay using luminiscence. Tissue culture surface treated assay plates (1536-well) were used. […] The 100% cells survival control was determined exposing the host-cells to a 0.5% DMSO concentration, whereas the 100% toxicity control was achieved by seeding the cells in presence of Amphotericin B at 50uM. Plates were incubated for four days at 37C, 5% CO2. The assay readout was developed by addition of 5uL of CellTiter-Glo Reagent following the manufacturer's instructions. Luminiscence was measured using a ViewLux. Format: functional, cell-based. The settings on record: Mus musculus, NIH3T3, 96 h.

Data set [13] has as its system Leishmania donovani. Kind of data set: GSK_TCAKS: pIC50 Leishmania donovani viability assay using fluorescence intensity. Assay plates (1536-well) were prepared by adding 30nL per well of compound. For single shot assay, the final compound concentration was 5uM. […] Briefly, eGFP LdBOB axenic amastigotes were harvested, fixed and counted in a CASY cell counter (Roche-Applied Science). A final concentration of 1.5 * 10^5 cells per well were prepared in amastigote media containing 500 U/mL penicillin/streptomycin (Invitrogen) and 6uL was dispensed to each experimental well using a Multidrop Combi dispenser (Thermo Scientific). 6uL of assay media was dispensed to control columns used as reference for 100% compound response. Following incubation for 72 h at 37C, 5% CO2, 2 uL of resazurin was added to each well at a final concentration of 0.5 mM in phosphate buffered saline (PBS) with IGEPAL (Sigma-Aldrich), 0.05% (v/v). In kind it is functional, organism-based.

Sterol 14-alpha demethylase, sequence (Q7Z1V1 whole entry): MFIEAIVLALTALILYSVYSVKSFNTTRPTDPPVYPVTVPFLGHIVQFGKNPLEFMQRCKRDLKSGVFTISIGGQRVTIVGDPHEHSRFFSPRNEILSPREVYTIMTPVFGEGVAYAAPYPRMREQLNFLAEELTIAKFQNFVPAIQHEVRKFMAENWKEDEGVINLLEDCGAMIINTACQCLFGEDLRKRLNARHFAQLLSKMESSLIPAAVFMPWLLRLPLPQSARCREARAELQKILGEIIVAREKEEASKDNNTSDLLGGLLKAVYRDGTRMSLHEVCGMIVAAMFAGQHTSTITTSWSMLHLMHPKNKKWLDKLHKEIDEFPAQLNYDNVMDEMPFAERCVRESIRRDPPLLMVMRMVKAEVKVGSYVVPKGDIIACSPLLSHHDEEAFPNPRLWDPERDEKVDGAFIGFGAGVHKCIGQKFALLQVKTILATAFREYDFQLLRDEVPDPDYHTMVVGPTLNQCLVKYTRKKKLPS

As for `Cc1nnnn1-c1cccc(C(=O)N2CCC[C@@]3(C)c4ncncc4CCC23)c1` (stereo partly specified), the IC50 – broadly, the midpoint of a concentration-inhibition curve – at 48 h in data set [1] was greater than 100 µM. The concentration for half-maximal inhibition (IC50) in data set [2] is 0.316 µM; in data set [3], 0.316 µM; in data set [4], greater than 50.1 µM; in data set [5], greater than 50.1 µM; in [6], greater than 39.8 µM; in [7] it was 0.631 µM. In addition, the IC50 is greater than 50.1 µM in data set [8]; greater than 39.8 µM in [9]; 6.31 µM in data set [10]; 25.1 µM in data set [11]; greater than 50.1 µM in [12]; 0.398 µM in data set [13].

As to `CC(=Cc1ccccc1)CN1CCC(=O)N(Cc2cccnc2)CC1`, the IC50 at 48 h in data set [1] is greater than 100 µM. The IC50 in data set [2] was 0.501 µM; in data set [3] it was 0.501 µM; in [4], greater than 50.1 µM; in [5], greater than 50.1 µM; in [6], greater than 39.8 µM; in data set [7], 0.251 µM. Further, the half-inhibitory concentration (IC50) in data set [8] was 39.8 µM; in data set [9], greater than 39.8 µM; in data set [10], 31.6 µM; in data set [11], 0.1 µM; in data set [12], greater than 50.1 µM; in [13], greater than 50.1 µM.

Take `CN(Cc1nc2ccccc2s1)C(=O)C=Cc1cc2ccccc2o1`: the IC50 at 48 h in data set [1] was greater than 100 µM. Further, the IC50 in [2] is 1 µM; in data set [3] it was 0.794 µM; in [4], greater than 50.1 µM; in data set [5], greater than 50.1 µM; in data set [6], greater than 39.8 µM; in data set [7] it was 0.631 µM. Moreover, the IC50 in data set [8] is greater than 50.1 µM; in [9], 31.6 µM; in data set [10], 15.8 µM; in data set [11], 0.158 µM; in data set [12] it was 31.6 µM; in [13], 50.1 µM.

Take `Cc1cccc(N2CCCN(Cc3c[nH]c4ccccc34)CC2)n1`: the IC50 at 48 h in data set [1] was 12.6 µM. In addition, the IC50 in [2] is 0.316 µM; in [3] it was 0.398 µM; in data set [4], 2.51 µM; in data set [5], 10 µM; in [6], 12.6 µM; in data set [7], 0.316 µM. For the same molecule, the IC50 in [8] is 10 µM; in data set [9], 12.6 µM; in [10] it was 10 µM; in [11], greater than 100 µM; in data set [12] it was 25.1 µM; in [13], greater than 50.1 µM.

In data set [1], `Cc1ccc2sc(NC(=O)Cn3cnc([N+](=O)[O-])n3)nc2c1` had an IC50 at 48 h greater than 100 µM. The IC50 in data set [2] is 0.501 µM; in [3], 3.98 µM; in [4] it was greater than 50.1 µM; in [5] it was greater than 50.1 µM; in [6], greater than 39.8 µM; in [7], 1.26 µM. Also, the IC50 in data set [8] is greater than 50.1 µM; in [9], 25.1 µM; in [10], greater than 50.1 µM; in [11] it was greater than 100 µM; in data set [12], 50.1 µM; in data set [13], greater than 50.1 µM.

Molecule `C=CCOCC1Cn2nc([N+](=O)[O-])nc2O1` (stereo unspecified) gave an IC50 at 48 h in [1] greater than 100 µM. The IC50 in data set [2] was 0.631 µM; in data set [3] it was 1.26 µM; in [4], greater than 50.1 µM; in data set [5], greater than 50.1 µM; in data set [6], greater than 39.8 µM; in data set [7], 0.501 µM. In addition, the IC50 in [8] was greater than 50.1 µM; in [9], greater than 39.8 µM; in data set [10] it was greater than 50.1 µM; in data set [11] it was greater than 100 µM; in [12], greater than 50.1 µM; in data set [13], greater than 50.1 µM.

With `O=S(=O)(NCC(c1cccnc1)N1CCN(c2ccccc2F)CC1)c1ccc(F)cc1` (stereo unspecified), the concentration for half-maximal inhibition (IC50) at 48 h in [1] was greater than 100 µM. For the same molecule, the concentration for half-maximal inhibition (IC50) in data set [2] was 0.2 µM; in data set [3], 0.2 µM; in data set [4], greater than 50.1 µM; in [5] it was greater than 50.1 µM; in data set [6], greater than 39.8 µM; in data set [7], 0.501 µM. The 50% inhibitory concentration (IC50) is greater than 50.1 µM in data set [8]; 25.1 µM in data set [9]; 3.98 µM in data set [10]; 0.0794 µM in data set [11]; greater than 50.1 µM in data set [12]; 3.98 µM in data set [13].
